Measured values published in EPA's aquatic toxicity sets.

Tests used:
[1] = test system: Tetrahymena pyriformis; assay: 48 h IGC50 (-log10 mol/L); higher = more toxic
[2] = test system: Daphnia magna; assay: 48 h LC50 (-log10 mol/L); higher = more toxic

Row | Structure (SMILES) | 48 h IGC50 (-log10 mol/L) [1] | 48 h LC50 (-log10 mol/L) [2]
1 | CC(=O)Nc1ccc(O)cc1 | 2.18 | 4.22
2 | CCOC(=O)CC | 2.06 | 2.83
3 | O=[N+]([O-])c1cc(Cl)cc(Cl)c1 | 4.13 | 4.43
4 | CNC(=S)NC | 1.89 | 3.83
5 | O=[N+]([O-])c1cccc(Cl)c1Cl | 4.07 | 4.62
6 | CC(C)c1ccccc1 | 3.69 | 3.77
7 | O=Cc1ccc(O)c(O)c1O | 3 | 3.67
8 | Cc1ccc(C)cc1 | 3.25 | 3.52
9 | OCCCl | 1.58 | 2.58
10 | Cc1cc(Cl)ccc1O | 3.7 | 5.69
11 | O=[N+]([O-])c1ccc(O)cc1 | 4.42 | 4.02
12 | c1ccsc1 | 1.56 | 2.42
13 | CCOC(C)=O | 1.7 | 2.09
14 | S=C=NCCc1ccccc1 | 5.54 | 6.1
15 | S=C=Nc1ccc(N=C=S)cc1 | 6.35 | 6.4
16 | CCCCN=C=S | 4.72 | 5.43
17 | Oc1ccc(-c2ccccc2)cc1 | 4.39 | 4.67
18 | S=C=NCc1ccccc1 | 5.74 | 6.54
19 | CCNC(N)=S | 1.87 | 3.94
20 | c1ccc2c(c1)oc1ccccc12 | 4.42 | 5
21 | O=P(Oc1ccccc1)(Oc1ccccc1)Oc1ccccc1 | 4.81 | 5.51
22 | Cc1ccc2ccccc2c1 | 4.08 | 4.98
23 | CCC(=O)O | 2.49 | 3.17

Row | Structure (SMILES) | 48 h IGC50 (-log10 mol/L) [1] | 48 h LC50 (-log10 mol/L) [2]
24 | Cc1ccc([N+](=O)[O-])cc1C | 3.59 | 3.98
25 | O=Cc1ccccc1 | 2.8 | 3.98
26 | NC(N)=S | 1.68 | 3.88
27 | Nc1cc(Cl)ccc1Cl | 3.58 | 4.74
28 | Nc1ccc(Cl)cc1Cl | 3.56 | 5.43
29 | CN(C)c1ccccc1 | 3.28 | 4.38
30 | Cc1ccc(O)c(C)c1 | 3.14 | 4.76
31 | CCCCNC(N)=S | 2.81 | 3.85
32 | Clc1ccc(Cl)cc1 | 3.53 | 4.14
33 | Oc1cc(Cl)ccc1Oc1ccc(Cl)cc1Cl |  | 6.11
34 | COc1ccccc1 |  | 3.43
35 | O=C(O)c1ccccc1O | 2.49 | 3.07
36 | CC[C@H]1OC(=O)[C@H](C)[C@@H](O[C@H]2C[C@@](C)(OC)[C@@H](O)[C@H](C)O2)[C@H](C)[C@@H](O[C@@H]2O[C@H](C)C[C@H](N(C)C)[C@H]2O)[C@](C)(O)C[C@@H](C)CN(C)[C@H](C)[C@@H](O)[C@]1(C)O |  | 3.79
37 | Oc1ccc(Cl)cc1Cl |  | 4.8
38 | CNC(N)=S | 1.63 | 3.98
39 | Cc1ccc(C(C)C)cc1 |  | 4.32
40 | c1ccc2[nH]ccc2c1 | 3.21 | 5.07
41 | O=C1CN(/N=C/c2ccc([N+](=O)[O-])o2)C(=O)N1 |  | 3.51
42 | Clc1ccc(-c2ccc(Cl)cc2Cl)cc1 |  | 6.21
43 | CCOP(=O)(SC(C)CC)N1CCSC1=O (centres undefined) |  | 5.76
44 | C[C@]12C=CC(=O)C=C1C(Cl)=C[C@@H]1[C@@H]2[C@@H](O)C[C@@]2(C)[C@H]1CC[C@]2(O)C(=O)CO |  | 3.96
45 | CCc1nc(N)nc(N)c1-c1ccc(Cl)cc1 |  | 4.63
46 | CCOc1ccc2c(c1)C(C)=CC(C)(C)N2 |  | 5.04

Row | Structure (SMILES) | 48 h IGC50 (-log10 mol/L) [1] | 48 h LC50 (-log10 mol/L) [2]
47 | CC1=CC(=O)C(C)=C(C)C1=O |  | 5
48 | CC(C)C(=O)Nc1ccc([N+](=O)[O-])c(C(F)(F)F)c1 |  | 5.3
49 | COc1c(C(C)(C)C)cc([N+](=O)[O-])c(C)c1[N+](=O)[O-] |  | 5.64
50 | O=S(=O)(c1ccc(Cl)cc1)c1cc(Cl)c(Cl)cc1Cl |  | 4.71
51 | CCNc1nc(Cl)nc(NC(C)(C)C#N)n1 |  | 6.45
52 | CC(F)(Cl)Cl |  | 3.58
53 | CC(C)(C)NCC(O)COc1cccc2c1C[C@H](O)[C@H](O)C2 (some centres undefined) |  | 3.28
54 | CC1CCCCC1 |  | 4.82
55 | CCS |  | 5.56
56 | CCCCC(CC)C(=O)O (centres undefined) | 3.08 | 3.08
57 | CCCCc1ccccc1 | 4.25 | 5.55
58 | Nc1cc(Cl)c(Cl)c(Cl)c1Cl |  | 5.56
59 | O=C1CNC(=S)N1 |  | 3.77
60 | CCOc1cc(NC(C)=O)ccc1C(=O)OC |  | 3.07
61 | CCC(Cl)Cl |  | 3.63
62 | Cc1ccccc1N | 2.84 | 5.31
63 | CC1=CCC2CC1C2(C)C (centres undefined) |  | 3.52
64 | Oc1cc(Cl)c(Cl)c(Cl)c1 |  | 5.46
65 | Cc1ccc(Cl)cc1Cl |  | 5.42
66 | CNC(=O)Oc1cccc2c1OC(C)(C)O2 |  | 6.88
67 | ClCCCCl |  | 2.61
68 | ClCC(Cl)(Cl)Cl |  | 3.84
69 | CCCC1O[C@@H]2C[C@H]3[C@@H]4CCC5=CC(=O)C=C[C@]5(C)[C@H]4[C@@H](O)C[C@]3(C)[C@]2(C(=O)CO)O1 (some centres undefined) |  | 4.33

Row | Structure (SMILES) | 48 h IGC50 (-log10 mol/L) [1] | 48 h LC50 (-log10 mol/L) [2]
70 | O=C(N=C=S)c1ccccc1 | 3.1 | 4.93
71 | c1ccc2c(c1)Cc1ccccc1O2 |  | 3.95
72 | c1cc2ccc3cccc4ccc(c1)c2c34 |  | 6.17
73 | Oc1c(Cl)c(Cl)cc(Cl)c1Cl | 5.22 | 5.61
74 | CCNc1nc(NCC)nc(SC)n1 |  | 3.63
75 | CCCSc1ccc2nc(NC(=O)OC)[nH]c2c1 |  | 7.04
76 | Cc1cc(C)cc(C)c1 |  | 4.3
77 | CSc1nc(N)nc(NC(C)(C)C)n1 |  | 4.29
78 | Clc1ccc(-c2ccccc2)cc1 |  | 5.63
79 | c1ccc2sc(SSc3nc4ccccc4s3)nc2c1 |  | 3.62
80 | Nc1cc(Cl)c(Cl)cc1Cl |  | 4.76
81 | COCC(C)O (centres undefined) |  | 0.59
82 | CC(C)CC[C@@H](O)[C@](C)(O)[C@H]1CC[C@@]2(O)C3=CC(=O)[C@@H]4C[C@@H](O)[C@@H](O)C[C@]4(C)[C@H]3CC[C@]12C |  | 6.42
83 | CC(C)(C)[C@H](O)[C@H](Cc1ccc(Cl)cc1)n1cncn1 |  | 4.01
84 | c1ccncc1 | 1.68 | 1.81
85 | COc1ccc2nc(S(=O)Cc3ncc(C)c(OC)c3C)[nH]c2c1 (centres undefined) |  | 3.59
86 | ClC=CCCl |  | 4.32
87 | N#Cc1c(Cl)c(Cl)c(Cl)c(C#N)c1Cl |  | 6.21
88 | Nc1nc(N)c2nc(-c3ccccc3)c(N)nc2n1 |  | 4.4
89 | Cc1cn([C@H]2C=C[C@@H](CO)O2)c(=O)[nH]c1=O |  | 2.36
90 | C/C=C(\C)C(=O)O[C@H]1C[C@@H](OC(C)=O)[C@@]2(C(=O)OC)CO[C@H]3[C@@H](O)[C@@](C)([C@]45O[C@@]4(C)[C@H]4C[C@@H]5O[C@@H]5OC=C[C@@]54O)[C@H]4[C@]1(CO[C@]4(O)C(=O)OC)[C@@H]32 |  | 6.06
91 | COP(=O)(NC(C)=O)SC (centres undefined) |  | 4.11
92 | Cc1cc(C)c(C)cc1C |  | 5.45

Row | Structure (SMILES) | 48 h IGC50 (-log10 mol/L) [1] | 48 h LC50 (-log10 mol/L) [2]
93 | O=S1(=O)c2ccccc2-c2ccccc21 |  | 4.57
94 | Clc1ccc(Cl)c(-c2cc(Cl)c(Cl)cc2Cl)c1 |  | 7.51
95 | CCCCCCCCCC |  | 5.3
96 | c1ccc2c(c1)ccc1sc3ccccc3c12 |  | 6.03
97 | O=S1c2ccccc2-c2ccccc21 |  | 4
98 | c1ccc2cnccc2c1 |  | 3.71
99 | CC(C)OC(=O)Nc1cccc(Cl)c1 |  | 4.76
100 | S=P(N1CC1)(N1CC1)N1CC1 |  | 2.54
101 | CCCS |  | 6.1
102 | Fc1ccc([C@@]2(Cn3cncn3)O[C@@H]2c2ccccc2Cl)cc1 |  | 4.58
103 | O=S1(=O)OCC2C(CO1)C1(Cl)C(Cl)=C(Cl)C2(Cl)C1(Cl)Cl (centres undefined) |  | 5.3
104 | CCCCOCCOCCOCc1cc2c(cc1CCC)OCO2 |  | 5.29
105 | Cc1c(Cl)cccc1[N+](=O)[O-] | 3.68 | 4.61
106 | NNC(=O)c1ccncc1 |  | 3.77
107 | CC(C)(C)NC(=O)[C@@H]1C[C@@H]2CCCC[C@@H]2CN1C[C@@H](O)[C@H](Cc1ccccc1)NC(=O)[C@H](CC(N)=O)NC(=O)c1ccc2ccccc2n1 |  | 4.27
108 | O=S1(=O)C=Cc2ccccc21 |  | 4.07
109 | CN(C)[C@@H]1C(=O)C(C(N)=O)=C(O)[C@@]2(O)C(=O)C3=C(O)c4c(O)cccc4[C@@](C)(O)[C@H]3C[C@@H]12 |  | 6.43
110 | CN1C(=O)CN=C(c2ccccc2)c2cc(Cl)ccc21 |  | 4.82
111 | CCOP(=S)(OCC)OP(=S)(OCC)OCC |  | 9.15
112 | C1=CCCCC1 |  | 3.94
